In US20090247732A1 (Optimer Pharmaceuticals, Inc., priority 2003, published 2009):
Ends that are not written are not given here. Peptide text beside a SMILES is read from it. * marks the point of attachment. Fmoc = O=C(OCC1c2ccccc2-c2ccccc21)*

Tests used:
[1] = system: trypsin; assay: Degradation study with trypsin (LCMS, product ratios by PDA integration); type: in vitro ADME; set-up: key to Deg 1 / Deg 2: product ratio (%) by PDA peak integration; conditions: for Deg 1 / Deg 2 / mode of enzymatic degradation (cleavage site / products): trypsin; for Deg 1 / Deg 2: pH 7.5; for Parent (%): 120 units trypsin, 0.1 M pH 7.5 potassium phosphate buffer; for mode of enzymatic degradation (cleavage site / products): in words
Procedure: Degradation Study: A solution of 1 (1 mg) in 0.1 M, pH 7.5 potassium phosphate buffer (1 mL) was treated with 120 units of trypsin (10 μL of a 1 mg/mL solution of trypsin 12000 units/mg). A 20 μL aliquot of the sample was immediately analyzed by LCMS.
Column: Waters Symmetry 300, 4.6×250 mm, C18, 5 micron particle size.
Solvent B: Acetonitrile/0.1% TFA
Gradient: 15-40% B over 30 minutes; 15% B isocratic for 10 minutes
The initial injection was defined as “time 0” and one subsequent injection was carried out at 40 minutes. The degradation products were characterized by mass spectrometry using electrospray positive ionization (ES^+). Product ratios were determined by integration of photodiode array (PDA) spectra.

[2] = system: trypsin; assay: trypsin in 0.1 M, pH 7.5 potassium phosphate buffer; conditions: up to 40 minutes
[3] = degradation product 1, time 40 minutes
[4] = degradation product 2, time 40 minutes
[5] = time 40 (injection at 40 minutes)

Row | Deg 1 ([1]; degradation product 1, time 0) | Deg 1 [1, 3] | Deg 2 ([1]; degradation product 2, time 0) | Deg 2 [1, 4] | Parent (%) ([1]; time 0 (initial injection)) | Parent (%) [1, 5] [%] | cleaved bond [2] | Molecule | mode of enzymatic degradation (cleavage site / products) [1] | not cleaved [2] | fragment found [2]
1 | 5 | 0 | 20 | 100 | 75 | 0 |  | CC(=O)OCC1OC(OC2C(COC(C)=O)OC(OC3C(COC(C)=O)OC(OCC(=O)NC(CCCCN)C(=O)NC(CCCCN)C(=O)NC(CCCNC(=N)N)C(=O)NCC(=O)NCC(=O)NC(CO)C(=O)O)C(OC(C)=O)C3OC(C)=O)C(OC(C)=O)C2OC(C)=O)C(OC(C)=O)C(OC(C)=O)C1OC(C)=O (stereo not shown) [Compound 1] | hydrolysis is initially observed between the arginine and glycine residues |  | 
2 | 4 | 54 | 4 | 45 | 92 | 1 |  | N=C(N)NCCCC(NC(=O)C(CCCCN)NC(=O)C(CCCCN)NC(=O)OCC1c2ccccc2-c2ccccc21)C(=O)NCC(=O)NCC(=O)NC(CO)C(=O)O (stereo not shown) [Compound 4] (Fmoc-KKRGGS-OH; configuration not given here) | hydrolysis occurs sequentially inward from the N-terminus |  | 
3 |  |  |  |  |  |  | arginine-glycine, first_seen | KKRGGS [1] |  |  | the two lysine residues conjugated to the carbohydrate

The remaining lines, values behind:

Row | Molecule | Deg 1 ([1]; degradation product 1, time 0) | Deg 1 [1, 3] | Deg 2 ([1]; degradation product 2, time 0) | Deg 2 [1, 4] | Parent (%) ([1]; time 0 (initial injection)) | Parent (%) [1, 5] [%] | cleaved bond [2] | mode of enzymatic degradation (cleavage site / products) [1] | not cleaved [2] | fragment found [2]
4 | Compound 2: Crude triphenylmethyl protected glycopeptide from peptide A (SEQ ID No. 1) and carbohydrate glycolic acid C (KKRGGS; also: glycopeptide with carbohydrate glycolic acid C, triphenylmethyl protected) | 0 | 67 |  |  | 60 | 27 |  | a single, as yet uncharacterized product of the enzyme reaction |  | 
5 | KKRGGS |  |  |  |  |  |  |  |  | 100% parent at 40 minutes; no degradation products observed | 
